{
  "source": "patent US20070149456A1",
  "about": "“Epithelial sodium channel inhibiting agents and uses therefor” (University of Pittsburgh, priority 2005, published 2007)",
  "key": {"[1]": {"biological_target": "T1, αRtripleAβγ (Mus musculus, UniProt Q61180+Q9WU38+Q9WU39, R205A/R208A/R231A)", "T1 construct": "expressed in transfected cells; host or cells: Xenopus laevis oocytes (cRNA injection)", "T1 sequence (Q61180 1-699 R205A/R208A/R231A)": "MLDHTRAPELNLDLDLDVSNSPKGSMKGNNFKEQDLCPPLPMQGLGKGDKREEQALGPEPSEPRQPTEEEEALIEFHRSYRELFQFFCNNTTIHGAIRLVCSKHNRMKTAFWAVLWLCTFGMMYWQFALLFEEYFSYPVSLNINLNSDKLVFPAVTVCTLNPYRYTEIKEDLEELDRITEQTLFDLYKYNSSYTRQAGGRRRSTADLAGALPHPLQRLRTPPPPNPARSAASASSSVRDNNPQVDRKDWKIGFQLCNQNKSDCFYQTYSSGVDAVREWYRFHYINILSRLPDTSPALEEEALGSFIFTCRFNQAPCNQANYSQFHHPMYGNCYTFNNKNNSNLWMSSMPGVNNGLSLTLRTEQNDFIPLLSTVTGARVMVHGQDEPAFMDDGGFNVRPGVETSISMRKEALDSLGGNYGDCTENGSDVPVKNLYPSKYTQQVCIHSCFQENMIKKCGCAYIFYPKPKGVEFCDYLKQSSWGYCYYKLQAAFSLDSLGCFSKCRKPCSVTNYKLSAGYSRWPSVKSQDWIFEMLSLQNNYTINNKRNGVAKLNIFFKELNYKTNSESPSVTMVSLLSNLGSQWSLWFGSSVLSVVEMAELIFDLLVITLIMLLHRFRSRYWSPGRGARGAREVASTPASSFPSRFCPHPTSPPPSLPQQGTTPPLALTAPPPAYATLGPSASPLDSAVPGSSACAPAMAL", "T1 sequence (Q9WU38 1-638)": "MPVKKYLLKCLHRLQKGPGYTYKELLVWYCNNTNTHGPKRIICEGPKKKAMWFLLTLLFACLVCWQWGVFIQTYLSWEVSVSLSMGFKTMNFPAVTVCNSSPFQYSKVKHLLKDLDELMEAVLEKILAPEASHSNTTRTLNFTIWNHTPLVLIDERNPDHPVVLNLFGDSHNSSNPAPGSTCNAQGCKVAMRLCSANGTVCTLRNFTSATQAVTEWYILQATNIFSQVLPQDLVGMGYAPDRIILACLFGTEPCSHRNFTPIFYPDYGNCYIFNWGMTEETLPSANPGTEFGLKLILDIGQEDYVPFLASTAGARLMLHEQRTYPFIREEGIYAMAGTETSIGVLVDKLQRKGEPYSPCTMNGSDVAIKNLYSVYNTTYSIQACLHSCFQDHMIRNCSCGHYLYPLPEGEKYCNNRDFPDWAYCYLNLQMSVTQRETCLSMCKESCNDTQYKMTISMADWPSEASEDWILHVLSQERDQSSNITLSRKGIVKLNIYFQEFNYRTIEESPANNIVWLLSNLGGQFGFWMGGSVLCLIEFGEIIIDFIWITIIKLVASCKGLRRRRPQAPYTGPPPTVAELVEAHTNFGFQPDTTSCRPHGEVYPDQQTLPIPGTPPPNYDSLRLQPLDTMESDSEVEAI", "T1 sequence (Q9WU39 1-655)": "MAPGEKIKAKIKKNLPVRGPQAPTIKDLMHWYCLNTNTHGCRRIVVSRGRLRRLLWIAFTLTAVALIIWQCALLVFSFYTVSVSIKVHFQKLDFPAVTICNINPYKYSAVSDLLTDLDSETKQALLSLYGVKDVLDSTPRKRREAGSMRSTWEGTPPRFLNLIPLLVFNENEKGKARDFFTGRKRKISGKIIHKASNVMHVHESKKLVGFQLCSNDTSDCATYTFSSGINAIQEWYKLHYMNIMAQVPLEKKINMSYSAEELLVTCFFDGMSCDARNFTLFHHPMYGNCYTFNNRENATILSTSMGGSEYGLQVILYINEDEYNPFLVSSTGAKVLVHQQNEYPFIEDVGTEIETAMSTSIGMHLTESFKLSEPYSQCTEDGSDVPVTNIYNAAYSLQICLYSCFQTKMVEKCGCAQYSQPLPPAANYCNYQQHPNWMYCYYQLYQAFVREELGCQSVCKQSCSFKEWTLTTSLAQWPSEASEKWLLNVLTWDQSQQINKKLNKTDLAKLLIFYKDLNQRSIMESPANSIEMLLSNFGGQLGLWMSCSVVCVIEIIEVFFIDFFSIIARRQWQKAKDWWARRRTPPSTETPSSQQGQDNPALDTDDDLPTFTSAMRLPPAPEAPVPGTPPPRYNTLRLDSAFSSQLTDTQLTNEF", "assay": "Two-electrode voltage clamp in oocytes expressing channels lacking furin cleavage of the α subunit", "type": "cell-based", "settings": "1 μM α-26", "text": "Oocyte Expression—cRNAs for α, β, γ mouse ENaC (wild-type and mutant) subunits and mouse prostasin were synthesized with T3 or T7 m-Message mMachineTM (Ambion, Austin, Tex.). Subunits carrying furin cleavage consensus site mutations and the corresponding wild-type subunits have amino-terminal HA and carboxyl-terminal V5 tags (Hughey, R. P., Bruns, J. B., Kinlough, C. L., Harkleroad, K. L., Tong, Q., Carattino, M. D., Johnson, J. P., Stockand, J. D., and Kleyman, T. R. (2004) J. Biol. Chem. 279, 18111-18114 18). Stage V-VI Xenopus laevis oocytes were pretreated with 1.5 mg/ml of type IV collagenase and injected with 0.5-2 ng of cRNA/subunit. Injected oocytes were maintained as previously reported (Carattino, M. D., Hill, W. G., and Kleyman, T. R. (2003), Arachidonic Acid Regulates Surface Expression of Epithelial Sodium Channels, J Biol. Chem. 278, 36202-36213 29).\nTwo-electrode Voltage Clamp—Two-electrode voltage clamp (TEV) was performed as previously described (Carattino, M. D., Hill, W. G., and Kleyman, T. R. (2003) J Biol. Chem. 278, 36202-36213 29). The extracellular solution (TEV solution) was (in mM): 110 NaCl, 2 KCl, 1.54 CaCl2, 10 HEPES, pH 7.4, or otherwise as indicated. […] ENaC-mediated whole cell Na^+ currents, at −60 mV,were defined as the amiloride-sensitive component of the current. […]"}, "[2]": {"biological_target": "T2, endogenous ENaC in mpkCCDc14 cells (Mus musculus, UniProt Q61180+Q9WU38+Q9WU39)", "T2 construct": "endogenous ENaC in a mouse cortical collecting duct (mpkCCDc14) cell line; endogenous in cells; host or cells: mpkCCDc14 mouse cortical collecting duct cell line", "T2 sequence (Q61180 1-205, one chain of several)": "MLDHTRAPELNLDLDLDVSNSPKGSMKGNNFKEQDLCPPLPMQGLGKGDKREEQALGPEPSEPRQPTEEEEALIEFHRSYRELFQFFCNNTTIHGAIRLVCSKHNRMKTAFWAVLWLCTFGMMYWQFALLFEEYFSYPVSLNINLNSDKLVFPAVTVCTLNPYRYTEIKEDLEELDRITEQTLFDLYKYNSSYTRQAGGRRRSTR", "settings": "mouse CCD cells; stated jointly with human airway; Carattino 2006; read-out: IC50, inhibition of ENaC activity; cited from earlier work"}},
  "note": "“Also recorded” adds a separate entry of the source.",
  "data": [
    {"substance": "Ac-DLRGALPHPLQRLRTPPPPNPARSAR-NH2 [α-26]", "values": [
      {"measurement": "block of channels", "setting": "[1]", "result": "does not block; also recorded: not blocked"},
      {"measurement": "IC50", "setting": "[2]", "result": "50 to 100", "unit": "µM"}
    ]}
  ]
}
